Measurements taken from paper PMC5882964, “Aspermerodione, a novel fungal metabolite with an unusual 2,6-dioxabicyclo[2.2.1]heptane skeleton, as an inhibitor of penicillin-binding protein 2a” (Scientific Reports, 2018).

Molecular target: T1, penicillin-binding protein 2a (PBP2a) (Staphylococcus aureus, UniProt Q7DHH4)
T1 construct: gene mecA; residues 23-668, pET28a, from mecA of Staphylococcus aureus ATCC 43300
Assay: microscale thermophoresis (MST) with labelled recombinant PBP2a

T1 sequence (Q7DHH4 entry or part of it): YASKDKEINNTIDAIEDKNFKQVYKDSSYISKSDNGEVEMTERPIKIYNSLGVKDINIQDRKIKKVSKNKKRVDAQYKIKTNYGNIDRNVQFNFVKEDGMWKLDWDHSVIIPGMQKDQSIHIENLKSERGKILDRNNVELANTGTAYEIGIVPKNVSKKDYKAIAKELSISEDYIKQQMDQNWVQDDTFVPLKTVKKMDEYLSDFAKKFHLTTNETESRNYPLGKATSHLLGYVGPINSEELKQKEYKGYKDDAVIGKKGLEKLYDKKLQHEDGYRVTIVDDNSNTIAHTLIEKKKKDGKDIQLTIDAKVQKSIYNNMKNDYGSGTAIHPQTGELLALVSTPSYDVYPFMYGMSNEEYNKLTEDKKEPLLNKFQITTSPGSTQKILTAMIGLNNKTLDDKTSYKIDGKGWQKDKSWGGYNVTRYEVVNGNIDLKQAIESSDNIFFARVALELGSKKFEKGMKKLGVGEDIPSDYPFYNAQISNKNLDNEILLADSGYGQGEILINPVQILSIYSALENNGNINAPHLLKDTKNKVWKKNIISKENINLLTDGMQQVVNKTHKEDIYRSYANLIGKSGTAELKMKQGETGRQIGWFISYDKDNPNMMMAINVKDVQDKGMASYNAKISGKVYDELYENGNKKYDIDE

**Q.** With `COC(=O)C1=C[C@]2(C)C[C@@]34CC[C@H]5C(C)(C)C(=O)C=C[C@]5(C)[C@]35OC[C@]14[C@](C)(CC2=O)O5` [compound 1, aspermerodione] as the compound, how does the Kd read?
**A.** 18.4 ± 1.29 µM
